Laboratory results from US10633389B2, “CARM1 inhibitors and uses thereof” (Epizyme, Inc., priority 2013, dated 2020).

System: asymmetric di-methyl PABP1 in RKO cells
Assay: RKO methylation assay, In Cell Western (ICW) for asymmetric di-methyl PABP1
Format: cell-based
Details: Homo sapiens, RKO, Cellular potencies, ICW PABP1me2a
Summary of the method: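 In-cell Western on fixed RKO cells after 48 h compound exposure: anti-asymmetric di-methyl PABP1 signal at 800 nm over DRAQ5 DNA signal at 700 nm. Percent inhibition set between DMSO wells and wells with 20 μM reference compound; IC50 curves fitted in triplicate.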

| IC50 [µM] | SMILES |
| --- | --- |
| < 5 | CCS(=O)(=O)N1CCC(Nc2nc(-c3cccc(OCC(O)CNC)c3)nc(-c3c(C)noc3C)c2C)C1 (centres unmarked) [Example 197-1a] |
| < 5 | CNCC(O)COc1cccc(-c2nc(NC3CCCN(S(C)(=O)=O)C3)c(C)c(-c3c(C)noc3C)n2)c1 (centres unmarked) [Example 198-1a] |
| < 5 | CNCC(O)COc1cccc(-c2nc(-c3c(C)noc3C)c(C)c(N3C[C@H](C)O[C@@H](C)C3)n2)c1 (some centres unmarked) [Example 199-1a] |
| < 5 | CNCC(O)COc1cccc(-c2nc(-c3c(C)noc3C)c(C)c(N3CCOC(C)(C)C3)n2)c1 (centres unmarked) [Example 200-1a] |
| < 5 | CNCC(O)COc1cccc(-c2nc(NC3CCCN(C(=O)OC)C3)c(C)c(-c3c(C)noc3C)n2)c1 (centres unmarked) [Example 201-1a] |
| < 5 | CNCC(O)COc1cccc(-c2nc(NC3CCN(C(=O)OC)CC3)c(Cl)c(-c3c(C)noc3C)n2)c1 (centres unmarked) [Example 202-1a] |
| < 5 | CNC[C@@H](O)COc1ccc(Cl)c(-c2nc(N[C@H]3CN(C(=O)OC)C[C@@H]3F)c(C)c(-c3c(C)noc3C)n2)c1 [Example 202-3] |
| < 5 | CCS(=O)(=O)N1CCCC(Nc2nc(-c3cccc(OCC(O)CNC)c3)nc(-c3c(C)noc3C)c2C)C1 (centres unmarked) [Example 204-1a] |
| < 5 | CNC[C@@H](O)COc1ccc(C(F)(F)F)c(-c2nc(NC3CCN(C(=O)OC)CC3)c(C)c(-c3c(C)noc3C)n2)c1 [Example 204-3] |
| < 5 | CNCC(O)COc1cccc(-c2nc(NCC3CCN(CC(F)F)CC3)c(C)c(-c3c(C)noc3C)n2)c1 (centres unmarked) [Example 205-1a] |
| < 5 | CCOC(=O)N1CCOC[C@@H]1CNc1nc(-c2cccc(OCC(O)CNC)c2)nc(-c2c(C)noc2C)c1C (some centres unmarked) [Example 206-1a] |
| < 5 | CNCC(O)COc1cccc(-c2nc(NC3CCNC[C@H]3F)c(C)c(-c3c(C)noc3C)n2)c1 (some centres unmarked) [Example 207-1a] |
| < 5 | CNCC(O)COc1cccc(-c2nc(NC3CCN(C(=O)OC(C)(C)C)C[C@H]3F)c(C)c(-c3c(C)noc3C)n2)c1 (some centres unmarked) [Example 208-1a] |
| 5 to 10 | CNCC(O)COc1cccc(-c2nc(-c3c(C)noc3C)c(C)c(N3CCO[C@@H](C)C3)n2)c1 (some centres unmarked) [Example 209-1a] |
| < 5 | CNCC(O)COc1cccc(-c2nc(Nc3cn(C)cn3)c(C)c(-c3c(C)noc3C)n2)c1 (centres unmarked) [Example 210-1a] |
| < 5 | CNCC(O)COc1cccc(-c2nc(-c3c(C)noc3C)c(C)c(N3CCO[C@H](C)C3)n2)c1 (some centres unmarked) [Example 211-1a] |
| < 5 | CNCC(O)COc1cccc(-c2nc(NC3C4COCC43)c(C)c(-c3c(C)noc3C)n2)c1 (centres unmarked) [Example 212-1a] |
| < 5 | CNC[C@@H](O)COc1ccc(Cl)c(-c2nc(N[C@H]3CC[C@@H](OC)C3)c(C)c(-c3c(C)noc3C)n2)c1 [Example 212-3] |
| < 5 | CNCC(O)COc1cccc(-c2nc(Nc3nncs3)c(C)c(-c3c(C)noc3C)n2)c1 (centres unmarked) [Example 215-1a] |

| IC50 [µM] | SMILES |
| --- | --- |
| < 5 | CNCC(O)COc1cccc(-c2nc(NC3CCCN(C(=O)N(C)C)C3)c(C)c(-c3c(C)noc3C)n2)c1 (centres unmarked) [Example 216-1a] |
| < 5 | CNCC(O)COc1cccc(-c2nc(Nc3nnc(C4CC4)s3)c(C)c(-c3c(C)noc3C)n2)c1 (centres unmarked) [Example 217-1a] |
| < 5 | CNCC(O)COc1cccc(-c2nc(N[C@H]3CCC[C@H]3O)c(C)c(-c3c(C)noc3C)n2)c1 (some centres unmarked) [Example 218-1a] |
| < 5 | CNCC(O)COc1ccc(Cl)c(-c2nc(NC3CC4(CC4)C3)c(C)c(-c3c(C)noc3C)n2)c1 (centres unmarked) [Example 218-3] |
| < 5 | CNCC(O)COc1cccc(-c2nc(NC3CCC[C@H]3O)c(C)c(-c3c(C)noc3C)n2)c1 (some centres unmarked) [Example 219-1a] |
| < 5 | CNC[C@@H](O)COc1ccc(Cl)c(-c2nc(NC3CC(COC)C3)c(C)c(-c3c(C)noc3C)n2)c1 (some centres unmarked) [Example 219-3] |
| < 5 | CNCC(O)COc1cccc(-c2nc(N[C@@H]3CCOC[C@@H]3OC)c(C)c(-c3c(C)noc3C)n2)c1 (some centres unmarked) [Example 220-1a] |
| < 5 | CNCC(O)COc1cccc(-c2nc(N[C@H]3C[C@H](C(=O)OC)C3)c(C)c(-c3c(C)noc3C)n2)c1 (some centres unmarked) [Example 221-1a] |
| < 5 | CCO[C@H]1CCC[C@@H]1Nc1nc(-c2cc(OC[C@H](O)CNC)ccc2Cl)nc(-c2c(C)noc2C)c1C [Example 222-3] |
| < 5 | CNCC(O)COc1cccc(-c2nc(N[C@@H]3CCNC[C@@H]3F)c(C)c(-c3c(C)noc3C)n2)c1 (some centres unmarked) [Example 224-1a] |
| < 5 | CNCC(O)COc1cccc(-c2nc(N[C@@H]3CCN(C(=O)OC)C[C@@H]3F)c(C)c(-c3c(C)noc3C)n2)c1 (some centres unmarked) [Example 225-1a] |
| < 5 | CCOC(=O)N1CC[C@@H](Nc2nc(-c3cccc(OCC(O)CNC)c3)nc(-c3c(C)noc3C)c2C)[C@@H](F)C1 (some centres unmarked) [Example 226-1a] |
| < 5 | CNCC(O)COc1cccc(-c2nc(N[C@@H]3CCN(C(=O)OC(C)(C)C)C[C@@H]3F)c(C)c(-c3c(C)noc3C)n2)c1 (some centres unmarked) [Example 227-1a] |
| < 5 | CNCC(O)COc1cccc(-c2nc(N[C@@H]3CCN(C(=O)OC)C[C@H]3F)c(C)c(-c3c(C)noc3C)n2)c1 (some centres unmarked) [Example 228-1a] |
| < 5 | CCOC(=O)N1CC[C@@H](Nc2nc(-c3cccc(OCC(O)CNC)c3)nc(-c3c(C)noc3C)c2C)[C@H](F)C1 (some centres unmarked) [Example 229-1a] |
| < 5 | CCS(=O)(=O)N1CCOC[C@@H]1CNc1nc(-c2cccc(OCC(O)CNC)c2)nc(-c2c(C)noc2C)c1C (some centres unmarked) [Example 230-1a] |
| < 5 | CNC[C@@H](O)COc1ccc(Cl)c(-c2nc(NC3CC(C)C3)c(C)c(-c3c(C)noc3C)n2)c1 (some centres unmarked) [Example 230-3] |
| < 5 | CNCC(O)COc1cccc(-c2nc(N[C@H]3C[C@H](C(C)(C)O)C3)c(C)c(-c3c(C)noc3C)n2)c1 (some centres unmarked) [Example 231-1a] |

The remaining lines, values behind:

| SMILES | IC50 [µM] |
| --- | --- |
| CNC[C@@H](O)COc1ccc(Cl)c(-c2nc(N[C@H]3CCO[C@H](C)C3)c(Cl)c(-c3c(C)noc3C)n2)c1 [Example 197-3] | < 5 |
| CNC[C@@H](O)COc1ccc(Cl)c(-c2nc(N[C@H]3CO[C@H](C)C3)c(C)c(-c3c(C)noc3C)n2)c1 [Example 198-3] | < 5 |
| CNC[C@@H](O)COc1ccc(Cl)c(-c2nc(-c3c(C)noc3C)c(C)c(N3CCc4ncccc43)n2)c1 [Example 199-3] | < 5 |
| CNC[C@@H](O)COc1ccc(C(F)(F)F)c(-c2nc(NC3CCOCC3)c(C)c(-c3c(C)noc3C)n2)c1 [Example 200-3] | < 5 |
| CNC[C@@H](O)COc1ccc(Cl)c(-c2nc(N[C@H]3CO[C@H](C)C3)c(Cl)c(-c3c(C)noc3C)n2)c1 [Example 201-3] | < 5 |
| CNCC(O)COc1cccc(-c2nc(NC3CCCN(CC(F)F)C3)c(C)c(-c3c(C)noc3C)n2)c1 (centres unmarked) [Example 203-1a] | < 5 |
| CNC[C@@H](O)COc1ccc(Cl)c(-c2nc(N[C@H]3CN(C4CC4)C[C@@H]3F)c(C)c(-c3c(C)noc3C)n2)c1 [Example 203-3] | < 5 |
| CNC[C@@H](O)COc1ccc(Cl)c(-c2nc(-c3c(C)noc3C)c(C)c(C3CC3)n2)c1 [Example 205-3] | < 5 |
| CNC[C@@H](O)COc1ccc(Cl)c(-c2nc(-c3c(C)noc3C)c(C)c(N3CC(F)C3)n2)c1 [Example 206-3] | < 5 |
| CNC[C@@H](O)COc1ccc(Cl)c(-c2nc(-c3c(C)noc3C)c(C)c(N3CCC3C)n2)c1 (some centres unmarked) [Example 207-3] | < 5 |
| CNC[C@@H](O)COc1ccc(Cl)c(-c2nc(N[C@H]3CCN(C)C[C@H]3F)c(Cl)c(-c3c(C)noc3C)n2)c1 [Example 208-3] | < 5 |
| CNC[C@@H](O)COc1ccc(Cl)c(-c2nc(N[C@H]3COC[C@@H]3O)c(C)c(-c3c(C)noc3C)n2)c1 [Example 209-3] | < 5 |
| CNC[C@@H](O)COc1ccc(Cl)c(-c2nc(N[C@@H]3CCN(C)C[C@@H]3F)c(Cl)c(-c3c(C)noc3C)n2)c1 [Example 210-3] | < 5 |
| CNC[C@@H](O)COc1ccc(Cl)c(-c2nc(N[C@@H]3CCN(C4CC4)C[C@@H]3F)c(Cl)c(-c3c(C)noc3C)n2)c1 [Example 211-3] | < 5 |
| CNC[C@@H](O)COc1ccc(Cl)c(-c2nc(-c3c(C)noc3C)c(C)c(N(C)[C@H]3CC[C@@H](OC)C3)n2)c1 [Example 213-3] | < 5 |
| CNC[C@@H](O)COc1ccc(Cl)c(-c2nc(-c3c(C)noc3C)c(Cl)c(N3Cc4ccncc4C3)n2)c1 [Example 214-3] | < 5 |
| CNC[C@@H](O)COc1ccc(Cl)c(-c2nc(NC[C@H]3CCCO3)c(Cl)c(-c3c(C)noc3C)n2)c1 [Example 215-3] | < 5 |
| CNC[C@@H](O)COc1ccc(Cl)c(-c2nc(N[C@H]3C[C@@H](OC)C3)c(Cl)c(-c3c(C)noc3C)n2)c1 [Example 216-3] | < 5 |
| CNC[C@@H](O)COc1ccc(Cl)c(-c2nc(N[C@H]3C[C@H](OC)C3)c(Cl)c(-c3c(C)noc3C)n2)c1 [Example 217-3] | < 5 |
| CNC[C@@H](O)COc1ccc(Cl)c(-c2nc(-c3c(C)noc3C)c(C)c(N(C)C3CC(COC)C3)n2)c1 (some centres unmarked) [Example 220-3] | < 5 |
| CCOC(=O)N1CCC[C@H]1CCOc1nc(-c2cc(OC[C@H](O)CNC)ccc2Cl)nc(-c2c(C)noc2C)c1C [Example 221-3] | < 5 |
| CNC[C@@H](O)COc1ccc(F)c(-c2nc(-c3c(C)noc3C)c(C)c(N3Cc4cnn(C)c4C3)n2)c1 [Example 223-3] | < 5 |
| CNC[C@@H](O)COc1ccc(Cl)c(-c2nc(-c3c(C)noc3C)c(C)c(N3Cc4[nH]nc(C)c4C3)n2)c1 [Example 224-3] | < 5 |
| CNC[C@@H](O)COc1ccc(Cl)c(-c2nc(-c3c(C)noc3C)c(Cl)c(N3Cc4nccnc4C3)n2)c1 [Example 225-3] | < 5 |
| CNC[C@@H](O)COc1ccc(F)c(-c2nc(-c3c(C)noc3C)c(C)c(N3Cc4nccnc4C3)n2)c1 [Example 226-3] | < 5 |
| CNC[C@@H](O)COc1ccc(F)c(-c2nc(-c3c(C)noc3C)c(C)c(N3CC4(CCOCC4)C3)n2)c1 [Example 227-3] | < 5 |
| CNC[C@@H](O)COc1ccc(Cl)c(-c2nc(NC[C@@H]3CCOC3)c(C)c(-c3c(C)noc3C)n2)c1 [Example 228-3] | < 5 |
| CNC[C@@H](O)COc1ccc(Cl)c(-c2nc(-c3c(C)noc3C)c(Cl)c(N3CC4(CCOCC4)C3)n2)c1 [Example 229-3] | < 5 |
